# Like-named read-outs stand apart in the source and are kept apart here.
# Tests used:
# [1] = cited from earlier work
# [2] = tested on: porcine skin; assay: ATR-FTIR of enhancer-treated skin; conditions: skin treated 24 h with 1% enhancer in 60% PG
# Experimental: ATR-FTIR is a powerful method to investigate the interactions of enhancers with SC lipids and proteins. […] Pure distilled water or 60% aqueous PG were applied as controls. […] IR spectra of the skin surface were recorded by an IR spectrometer (Nicolet iZ10, Thermo Scientific, Waltham, MA, USA), equipped with a single reflection […] ZnSe crystal (PIKE Technologies, Madison, WI, USA) at constant clamping pressure. […] Collected spectra were normalised, to reduce potential variations in the overall intensity of the spectra. Selected regions (amide I, amide II and CH2 stretching vibration bands) were fitted in Origin Pro (OriginLab, Wellesley Hills, MA, USA). The position, height and area of these selected peaks were compared among the particular spectra and the variances between peak characteristics were statistically evaluated by GraphPad Prism® software (GraphPad Software, Inc., La Jolla, CA, USA).
# [3] = cited from earlier work; remark: listed apart in the source
# [4] = tested on: porcine skin; assay: Entrapment of model drug in the skin after the permeation experiment; assay type: in vitro ADME; conditions: control without enhancer
# Experimental: At the end of the permeation experiment, the Franz diffusion cells were dismounted and the skin surface was thoroughly washed by distilled water and PBS. The skin area, which was exposed to the donor phase, was cut out, weighed and extracted by 5 mL of the respective mobile phase by shaking for 24 h at 32 °C on a laboratory shaker. The extracts were then filtered through 0.45 µm cellulose filters to eliminate skin residues and analysed by HPLC. Drug concentration in the skin, expressed as mg of model drugs per g of the skin tissue was calculated by dividing permeants’ amounts by the respective skin weights.
# [5] = In vitro permeation experiment, Franz-type diffusion cells; conditions: pig, pH 7.4
# [6] = tested on: porcine skin; assay: as above; conditions: for Jss, steady-state flux of the model drug: control, pure vehicle 60% PG without enhancer; for ER, enhancement ratio: flux with/without 1% enhancer
# [7] = Effect of enhancers on drug solubility in the donor phase; conditions: 32 °C, aqueous with cosolvent or surfactant or cyclodextrin, thermodynamic from solid
# [8] = tested on: human keratinocytes HaCaT; assay: Cytotoxicity, CCK-8 viability assay; assay type: cell-based; conditions: read-out: IC50, concentration causing 50% decrease in cell viability, 24 h incubation
# Experimental: Cytotoxicity of the three best enhancers (Mo10, Mo12, Mo14) was evaluated on non-malignant spontaneously immortalised human keratinocytes HaCaT (Cell Lines Service, Eppelheim, Germany). The cell line was cultivated in Dulbecco’s Modified Eagle’s Medium (DMEM, Sigma Aldrich, St. Luis, MO, USA), supplemented with 10% Fetal Bovine Serum (Sigma Aldrich, St. Luis, MO, USA) in a Petri dish at 37 °C in a humidified atmosphere of 5% CO2. Cells were subcultured two times a week. For cytotoxicity experiments, 96-well plates were seeded with cells (at a density of 10,000 cells per well) in 100 μL of culture medium and incubated at 37 °C in a humidified atmosphere of 5% CO2 for 24 h.
# The enhancers were dissolved in DMEM, left in an ultrasonic bath for 15 min and then kept at 37 °C overnight. On the next day, 10 μL of the particular enhancer solution was added to 100 μL of cell suspensions, to receive final enhancer concentrations in the range of 0.9–110 μM (concentrations determined according to our preliminary testing). The cells were incubated with tested compounds for 24 h. Then, the cell viability was determined, using the Cell Counting Kit-8 (CCK-8, Sigma Aldrich, St. Luis, MO, USA). The cells were incubated with 10 μL of the CCK-8 for 2 h. Thereafter, absorbance was measured at 450 nm, using the Infinite 200 PRO microplate reader (Tecan Austria GmbH, Austria). The mean optical density (absorbance) was used to calculate the percentage of cell viability as follows: percentage of cell viability=Atreatment−Ablank/Acontrol −Ablank×100 %, where A is the absorbance.
# [9] = tested on: porcine skin; assay: Transepidermal water loss (TEWL) measurements, reversibility of enhancer effect; conditions: for TEWL after the 2 h treatment: 1% enhancer in 60% PG applied 2 h; for TEWL after the 24 h treatment: 1% enhancer in 60% PG applied 24 h; for TEWL after 20 h: after 2 h treatment and enhancer removal; for TEWL within 24 h after the enhancers' removal: after 24 h treatment; for reversibility of the effect on the skin barrier: short-term 2 h application
# Experimental: The reversibility of the enhancers’ effects was studied by evaluation of the difference in the water loss through the intact and enhancer-treated skin. […] The TEWL measurements were carried out according to established protocols. The skin samples were mounted into Franz diffusion cells, with the acceptor compartments filled with PBS pH 7.4 and placed in a water bath at 32 °C to hydrate and equilibrate. At first, the base TEWL values of untreated skin samples were measured. Each of the Franz diffusion cells was removed from the water bath, dried completely with compressed air and inserted into a holder. Then the TEWL probe was placed 1.0 cm above the skin surface. The measuring time was on average 80–100 s. […] The cells were then incubated at 32 °C. The donor samples were removed after 2 h or 24 h and the skin surface was washed with 0.5 mL of PBS, gently blotted dry and thoroughly dried with compressed air. After the enhancer was removed, TEWL was measured at predetermined intervals over 42 or 50 h.
# [10] = tested on: porcine skin; assay: Skin electrical impedance measurements; conditions: 1% enhancer, 48 h; control ratio set to 1
# Experimental: For monitoring the skin integrity and characterisation of the permeation enhancers’ effect, the electrical impedance of each skin was measured, using an LCR 4080 multimeter (Voltcraft, Hirschau, Germany), set in parallel-equivalent mode with an alternating current frequency of 120 Hz. The measurements were carried out according to established protocols. The measurements were performed in the Franz diffusion cells. After the initial hydration and equilibration, the donor compartments were filled with 500 μL of PBS. One wire of the multimeter was placed in PBS in the acceptor, the other in the donor phase and the electrical impedance was determined. The next measurement was taken after the 48 h permeation experiment. When the donor samples ([…]) were removed, they were replaced with 500 μL PBS and the electrical impedance was re-measured. The electrical impedance ratio (EIR) was calculated for each cell as (2) EIR=EI1/EI2 where EI1 [kΩ] is electrical impedance before and EI2 [kΩ] after the 48 h treatment by the donor formulation.
# [11] = ref Drugbank, ALOGPS; cited from earlier work
# [12] = donor phase: 60% PG in distilled water without enhancer
molecule,measurement,setting,value
"CCCCCCCCCCCCN1CCCCCC1=O [Azone, N-dodecylazacykloheptan-2-on, reference compound]",IC50,[1]; ref 57,49 µM
same,IC50,[1]; ref 58,117 µM
same,"vasCH2, position of asymmetric CH2 stretching vibration",[2],2921.84 ± 0.34 cm⁻¹
same,"vsCH2, position of symmetric CH2 stretching vibration",[2],2851.16 ± 0.21 * cm^−1
CCCCCCCCCCCCOC(=O)CCCCCN(C)C [DDAK],IC50,[1]; ref 29,76 µM
"O=C(O)Cc1ccccc1Nc1c(Cl)cccc1Cl [DF, diclofenac sodium]",solubility in PBS,[3]; ref 27,5.15 mg/mL
same,amount of the model drug in the skin,[4],380.10 ± 50.52 μg·gskin^−1
same,Papp at 48 h,[5],0.0275 ×10⁻⁶ cm/s
same,"Jss, steady-state flux of the model drug",[6],5.74 ± 1.04 µg·cm^−2·h^−1
same,solubility at 48 h,[7]; [12],57.8 ± 2.55 mg/mL
"COc1ccc2c(c1)c(CC(=O)O)c(C)n2C(=O)c1ccc(Cl)cc1 [IND, indomethacin]",solubility in PBS,[3]; ref 26,0.65 mg/mL
same,amount of the model drug in the skin,[4],32.43 ± 6.98 μg·gskin^−1
same,Papp at 48 h,[5],0.104 ×10⁻⁶ cm/s
same,"Jss, steady-state flux of the model drug",[6],0.51 ± 0.09 µg·cm^−2·h^−1
same,solubility at 48 h,[7]; [12],0.95 ± 0.51 mg/mL
CCCCN1CC(CO)OC(OC)C1 (stereo not shown) [Mo4],"ER, enhancement ratio",[6]; permeant DF,1.04
same,"ER, enhancement ratio",[6]; permeant IND,5.78
same,"ER, enhancement ratio",[6]; permeant TH,1.38
CCCCCCCCN1CC(CO)OC(OC)C1 (stereo not shown) [Mo8],"ER, enhancement ratio",[6]; permeant DF,1.17
same,"ER, enhancement ratio",[6]; permeant IND,6.28
same,"ER, enhancement ratio",[6]; permeant TH,4.63
CCCCCCCCCCN1CC(CO)OC(OC)C1 (stereo not shown) [Mo10],IC50,[8],94 ± 1.5 µM
same,TEWL after the 2 h treatment,[9],11.7 ± 0.8 g·m^−2·h^−1
same,TEWL after the 24 h treatment,[9],15.6 ± 2.2 g·m^−2·h^−1
same,TEWL after 20 h,[9],4.8 ± 0.1 g·m^−2·h^−1
same,TEWL within 24 h after the enhancers' removal,[9],4.3 ± 0.7 g·m^−2·h^−1
same,reversibility of the effect on the skin barrier,[9],reversible
same,"EIR, electrical impedance ratio (before/after treatment)",[10],1.66 ± 0.19
same,"ER, enhancement ratio",[6]; permeant DF,1.43
same,"ER, enhancement ratio",[6]; permeant IND,7.80
same,"ER, enhancement ratio",[6]; permeant TH,9.87
same,"vasCH2, position of asymmetric CH2 stretching vibration",[2],2921.91 ± 0.40 cm⁻¹
same,"vsCH2, position of symmetric CH2 stretching vibration",[2],2852.58 ± 0.71 * cm^−1
CCCCCCCCCCCCN1CC(CO)OC(OC)C1 (stereo not shown) [Mo12],IC50,[8],41 ± 0.8 µM
same,TEWL after the 2 h treatment,[9],8.2 ± 0.3 g·m^−2·h^−1
same,TEWL after the 24 h treatment,[9],18.5 ± 1.2 g·m^−2·h^−1
same,TEWL after 20 h,[9],3.2 ± 0.3 g·m^−2·h^−1
same,TEWL within 24 h after the enhancers' removal,[9],9.5 ± 0.1 g·m^−2·h^−1
same,reversibility of the effect on the skin barrier,[9],reversible
same,"EIR, electrical impedance ratio (before/after treatment)",[10],1.60 ± 0.13
same,"ER, enhancement ratio",[6]; permeant DF,1.81
same,"ER, enhancement ratio",[6]; permeant IND,10.01
same,"ER, enhancement ratio",[6]; permeant TH,14.53
same,"vasCH2, position of asymmetric CH2 stretching vibration",[2],2921.14 ± 0.61 cm⁻¹
same,"vsCH2, position of symmetric CH2 stretching vibration",[2],2851.56 ± 0.23 * cm^−1
CCCCCCCCCCCCCCN1CC(CO)OC(OC)C1 (stereo not shown) [Mo14],IC50,[8],41.5 ± 1.5 µM
same,TEWL after the 2 h treatment,[9],9.0 ± 0.4 g·m^−2·h^−1
same,TEWL after the 24 h treatment,[9],18.1 ± 0.8 g·m^−2·h^−1
same,TEWL after 20 h,[9],4.6 ± 0.7 g·m^−2·h^−1
same,TEWL within 24 h after the enhancers' removal,[9],4.7 ± 0.1 g·m^−2·h^−1
same,reversibility of the effect on the skin barrier,[9],reversible
same,"EIR, electrical impedance ratio (before/after treatment)",[10],1.64 ± 0.14
same,"ER, enhancement ratio",[6]; permeant DF,2.58
same,"ER, enhancement ratio",[6]; permeant IND,9.10
same,"ER, enhancement ratio",[6]; permeant TH,8.67
same,"vasCH2, position of asymmetric CH2 stretching vibration",[2],2919.48 ± 0.42 cm⁻¹
same,"vsCH2, position of symmetric CH2 stretching vibration",[2],2850.74 ± 0.14 cm⁻¹
CCCCCCCCC=CCCCCCCCCN1CC(CO)OC(OC)C1 (stereo not shown) [Mo18/1],"ER, enhancement ratio",[6]; permeant DF,1.94
same,"ER, enhancement ratio",[6]; permeant IND,3.94
same,"ER, enhancement ratio",[6]; permeant TH,5.01
same,"vasCH2, position of asymmetric CH2 stretching vibration",[2],2920.35 ± 0.36 cm⁻¹
same,"vsCH2, position of symmetric CH2 stretching vibration",[2],2850.76 ± 0.15 cm⁻¹
CCCCCCCCCCCCCCCCCCN1CC(CO)OC(OC)C1 (stereo not shown) [Mo18],"ER, enhancement ratio",[6]; permeant DF,1.14
same,"ER, enhancement ratio",[6]; permeant IND,1.95
same,"ER, enhancement ratio",[6]; permeant TH,3.06
"Cn1c(=O)c2[nH]cnc2n(C)c1=O [TH, theophylline]",solubility in PBS,[3]; ref 25,7.65 mg/mL
same,logP,[11],−0.02
same,solubility at 48 h,[7],20 ± 0.62 mg/mL
CCCCCCCCCCCCOC(=O)CCCCCN.CCCCCCCCCCCCOC(=O)CCCCCNC(=O)O [Transkarbam 12],IC50,[1]; ref 29,21 µM
dodecyl amino glucoside,IC50,[1]; ref 34,24 µM

# Reference: paper PMC8778526, “N-Alkylmorpholines: Potent Dermal and Transdermal Skin Permeation Enhancers” (Pharmaceutics, 2021)
